Results taken from patent US11279733B2, “Peptide antibiotics” (priority 2017, dated 2022).
In brackets after ≈: the same amount, converted by molar mass. Where two headings read alike, the source gives them in different places. Positions of bridges follow the written chain, without caps; N, C: chain ends. Non-standard residues stand in square brackets, D forms with d. Residues, ends and D or L forms follow the SMILES beside them. *: point of attachment. Decanoyl(3R-OH) = CCCCCCC[C@@H](O)CC(=O)*; Decanoyl = CCCCCCCCCC(=O)*; dDab = NCC[C@@H](N)C(=O)O; Dab = NCC[C@H](N)C(=O)O; Dap = NC[C@H](N)C(=O)O

Tests used:
P. aeruginosa ATCC 27853 = details: ATCC 27853
Protocol: (§1) Bacteria were either obtained from American Type Culture Collection (ATCC; Manassas, Va., USA) or independent academic clinical isolate collections, as listed in Table 18 below. Bacteria were cultured in Nutrient broth (NB; Bacto Laboratories, catalogue No. 234000) or Mueller Hinton broth (MHB; Bacto Laboratories, catalogue No. 211443) at 37° C. overnight with shaking (˜180 RPM). A sample of each culture was then diluted 50-fold in fresh MHB and incubated at 37° C. for 2-3 h with shaking (˜180 RPM). Compound stock solutions were prepared as 0.64 mg/mL or 2.56 mg/mL in water. The compounds, at twice the final desired concentration, were serially diluted 2-fold across the wells of 96-well plates (Polystyrene, Corning, catalogue No. 3370). Mid-log phase bacterial cultures (after 2-3 h incubation) were diluted to a final concentration of 1×10^6 colony forming units (CFU)/mL, and 50 μL was added to each well giving a final cell density of 5×10^5 and a compound concentration range of 32 μg/mL to 0.015 μg/mL (128-0.06 μg/mL against P. aeruginosa PA9704).

K. pneumoniae ATCC 13883 = details: ATCC 13883
Protocol: as §1

[1] = test system: P. aeruginosa GN_105, PmxR; details: GN 105, PmxR
Protocol: as §1

A. baumannii ATCC 19606 = details: ATCC 19606
Protocol: as §1

[2] = test system: K. pneumoniae ATCC 700603, MDR; details: ATCC 700603
Protocol: as §1

E. coli ATCC 25922 = details: ATCC 25922
Protocol: as §1

[3] = test system: K. pneumoniae GN_106, PmxR; details: GN 106, PmxR
Protocol: as §1

[4] = test system: P. aeruginosa GN_043, PmxR
Protocol: as §1

A. baumannii GN_093 PmxR = details: GN 093 PmxR
Protocol: as §1

[5] = test system: S. aureus ATCC 25923, MSSA; details: ATCC 25923
Protocol: as §1

[6] = test system: K. pneumoniae ATCC BAA-2146, NDM-1 pos; details: ATCC BAA-2146
Protocol: as §1

[7] = test system: K. pneumoniae GN_102 PmxR; details: GN 102 PmxR
Protocol: as §1

Row | Compound | MIC P. aeruginosa ATCC 27853 (P. aeruginosa ATCC 27853) | MIC, P. aeruginosa ATCC 27853 (P. aeruginosa ATCC 27853) | MIC K. pneumoniae ATCC 13883 (K. pneumoniae ATCC 13883) | MIC, K. pneumoniae ATCC 13883 (K. pneumoniae ATCC 13883) | MIC P. aeruginosa GN_105, PmxR [1] | MIC, P. aeruginosa PA9704, PmxR [1] | MIC A. baumannii ATCC 19606 (A. baumannii ATCC 19606) | MIC, A. baumannii ATCC 19606 (A. baumannii ATCC 19606) | MIC K. pneumoniae ATCC 700603, MDR [2] | MIC, K. pneumoniae ATCC 700603, MDR [2] | MIC E. coli ATCC 25922 (E. coli ATCC 25922) | MIC, E. coli ATCC 25922 (E. coli ATCC 25922) | MIC K. pneumoniae GN_106, PmxR [3] | MIC, K. pneumoniae Cl 138-16347-20362, PmxR [3] | MIC P. aeruginosa GN_043, PmxR ([4]; P. aeruginosa GN_043, PmxR) | MIC A. baumannii GN_093 PmxR (A. baumannii GN_093 PmxR) | MIC S. aureus ATCC 25923, MSSA [5] | MIC K. pneumoniae ATCC BAA-2146, NDM-1 pos [6] | MIC, K. pneumoniae ATCC BAA-2146, NDM-1 pos [6] | MIC K. pneumoniae GN_102 PmxR [7] | also measured
1 | CCCCCCC[C@@H](O)CC(=O)N[C@H](CCN)C(=O)N[C@H]1CCNC(=O)[C@H](CC(C)C)NC(=O)[C@H](CCN)NC(=O)[C@H](CCN)NC(=O)[C@H](CC(C)C)NC(=O)[C@@H](Cc2ccccc2)NC(=O)[C@H](CCN)NC1=O [Octapeptin C4 (631), 3(R)OH-nC9CO-D-Dab-cyc[L-Dab-L-Dab-D-Phe-L-Leu-L-Dab-L-Dab-L-Leu], reference compound] ({Decanoyl(3R-OH)}-[dDab][Dab][Dab][dF]L[Dab][Dab]L; lactam 2-C) | 2 µg/mL (≈ 1.92 µM) | 2 µg/mL (≈ 1.92 µM) | 8 µg/mL (≈ 7.66 µM) | 8 µg/mL (≈ 7.66 µM) | 2 µg/mL (≈ 1.92 µM) | 2 µg/mL (≈ 1.92 µM) | 4 µg/mL (≈ 3.83 µM) | 4 µg/mL (≈ 3.83 µM) | 8 µg/mL (≈ 7.66 µM) | 8 µg/mL (≈ 7.66 µM) | 4 µg/mL (≈ 3.83 µM) | 4 µg/mL (≈ 3.83 µM) | 4 µg/mL (≈ 3.83 µM) | 4 µg/mL (≈ 3.83 µM) | 2 µg/mL (≈ 1.92 µM) | 4 µg/mL (≈ 3.83 µM) | 16 µg/mL (≈ 15.3 µM) | 8 µg/mL (≈ 7.66 µM) | 8 µg/mL (≈ 7.66 µM) | 2 µg/mL (≈ 1.92 µM) | MIC P. aeruginosa PA9704, PmxR [1]: 2 µg/mL (≈ 1.92 µM); MIC K. pneumoniae Cl 183-16357-20352, PmxR [3]: 4 µg/mL (≈ 3.83 µM); MIC P. aeruginosa GN_043, PmxR [4]: 2 µg/mL (≈ 1.92 µM); MIC, P. aeruginosa FADDI-PA070, PmxR ([4]; Table 5, polymyxin-resistant): 2 µg/mL (≈ 1.92 µM); MIC P. aeruginosa GN_043, PmxR ([4]; polymyxin-resistant): 2 µg/mL (≈ 1.92 µM); MIC, P. aeruginosa FADDI-PA070, PmxR ([4]; strain name as in Table 11): 2 µg/mL (≈ 1.92 µM); MIC A. baumannii Cl Ptyela 10073 4512:2, PmxR (A. baumannii GN_093 PmxR): 4 µg/mL (≈ 3.83 µM); MIC, A. baumannii Cl Ptyela 10073 4512:2, PmxR (A. baumannii GN_093 PmxR): 4 µg/mL (≈ 3.83 µM); MIC, S. Aureus ATCC 25923, MSSA [5]: 16 µg/mL (≈ 15.3 µM); MIC K. pneumoniae Cl Koprana 10065 0661:1 PmxR [7]: 2 µg/mL (≈ 1.92 µM); MIC, K. pneumoniae Cl Koprana 10065 0661:1, PmxR [7]: 2 µg/mL (≈ 1.92 µM)
2 | CCCCCCC[C@@H](O)CC(=O)N[C@H](CCN)C(=O)N[C@H]1CCNC(=O)[C@H](CC(C)C)NC(=O)[C@H](CCN)NC(=O)[C@H](CCN)NC(=O)[C@H](CC(C)C)NC(=O)[C@@H](Cc2ccccc2)NC(=O)[C@H](CN)NC1=O [compound 993, 3(R)OH-nC9CO-D-Dab-cyc[L-Dab-L-Dap-D-Phe-L-Leu-L-Dab-L-Dab-L-Leu]] ({Decanoyl(3R-OH)}-[dDab][Dab][Dap][dF]L[Dab][Dab]L; lactam 2-C) | – | 2 µg/mL (≈ 1.94 µM) | – | 4 µg/mL (≈ 3.88 µM) | – | 2 µg/mL (≈ 1.94 µM) | – | 8 µg/mL (≈ 7.76 µM) | – | 4 µg/mL (≈ 3.88 µM) | – | 2 µg/mL (≈ 1.94 µM) | – | 2 µg/mL (≈ 1.94 µM) | – | – | – | – | 8 µg/mL (≈ 7.76 µM) | – | MIC, P. aeruginosa FADDI-PA070, PmxR ([4]; Table 5, polymyxin-resistant): 2 µg/mL (≈ 1.94 µM); MIC, A. baumannii Cl Ptyela 10073 4512:2, PmxR (A. baumannii GN_093 PmxR): 16 µg/mL (≈ 15.5 µM); MIC, S. Aureus ATCC 25923, MSSA [5]: 8 µg/mL (≈ 7.76 µM); MIC, K. pneumoniae Cl Koprana 10065 0661:1, PmxR [7]: 2 µg/mL (≈ 1.94 µM)
3 | CCCCCCC[C@@H](O)CC(=O)N[C@H](CCN)C(=O)N[C@H]1CCNC(=O)[C@H](CC(C)C)NC(=O)[C@H](C)NC(=O)[C@H](CCN)NC(=O)[C@H](CC(C)C)NC(=O)[C@@H](Cc2ccccc2)NC(=O)[C@H](CCN)NC1=O [compound 4944, 3(R)OH-nC9CO-D-Dab-cyc[L-Dab-L-Dab-D-Phe-L-Leu-L-Dab-L-Ala-L-Leu]] ({Decanoyl(3R-OH)}-[dDab][Dab][Dab][dF]L[Dab]AL; lactam 2-C) | 8 µg/mL (≈ 7.88 µM) | – | 16 µg/mL (≈ 15.8 µM) | – | 16 µg/mL (≈ 15.8 µM) | – | 32 µg/mL (≈ 31.5 µM) | – | 16 µg/mL (≈ 15.8 µM) | – | 16 µg/mL (≈ 15.8 µM) | – | 32 µg/mL (≈ 31.5 µM) | – | – | >32 µg/mL | >32 µg/mL | 8 µg/mL (≈ 7.88 µM) | – | 8 µg/mL (≈ 7.88 µM) | MIC P. aeruginosa GN_043, PmxR ([4]; polymyxin-resistant): 4 µg/mL (≈ 3.94 µM)
4 | CCCCCCC[C@@H](O)CC(=O)N[C@H](CCN)C(=O)N[C@H]1CCNC(=O)[C@H](CC(C)C)NC(=O)[C@H](CCN)NC(=O)[C@H](CCN)NC(=O)[C@H](Cc2ccccc2)NC(=O)[C@@H](Cc2ccccc2)NC(=O)[C@H](CCN)NC1=O [compound 5003, 3(R)OH-nC9CO-D-Dab-cyc[L-Dab-L-Dab-D-Phe-L-Phe-L-Dab-L-Dab-L-Leu]] ({Decanoyl(3R-OH)}-[dDab][Dab][Dab][dF]F[Dab][Dab]L; lactam 2-C) | 2 µg/mL (≈ 1.85 µM) | – | 4 µg/mL (≈ 3.71 µM) | – | 2 µg/mL (≈ 1.85 µM) | – | 16 µg/mL (≈ 14.8 µM) | – | 16 µg/mL (≈ 14.8 µM) | – | 8 µg/mL (≈ 7.42 µM) | – | 4 µg/mL (≈ 3.71 µM) | – | 2 µg/mL (≈ 1.85 µM) | 8 µg/mL (≈ 7.42 µM) | 8 µg/mL (≈ 7.42 µM) | 16 µg/mL (≈ 14.8 µM) | – | 4 µg/mL (≈ 3.71 µM) | –
5 | CCCCCCCCCC(=O)N[C@@H](CCN)C(=O)N[C@H]1CCNC(=O)[C@H](CC(C)C)NC(=O)[C@H](CCN)NC(=O)[C@H](CCN)NC(=O)[C@H](CC(C)C)NC(=O)[C@@H](Cc2ccccc2)NC(=O)[C@H](CCN)NC1=O [compound 5568, nC9CO-L-Dab-cyc[L-Dab-L-Dab-D-Phe-L-Leu-L-Dab-L-Dab-L-Leu]] (Decanoyl-[Dab][Dab][Dab][dF]L[Dab][Dab]L; lactam 2-C) | – | 4 µg/mL (≈ 3.89 µM) | – | 4 µg/mL (≈ 3.89 µM) | 4 µg/mL (≈ 3.89 µM) | – | – | 16 µg/mL (≈ 15.6 µM) | – | 8 µg/mL (≈ 7.78 µM) | – | 8 µg/mL (≈ 7.78 µM) | 16 µg/mL (≈ 15.6 µM) | – | – | >32 µg/mL | – | – | 8 µg/mL (≈ 7.78 µM) | – | MIC P. aeruginosa GN_043, PmxR ([4]; Table 6, polymyxin-resistant): 4 µg/mL (≈ 3.89 µM); MIC, S. aureus ATCC 25923, MSSA [5]: 8 µg/mL (≈ 7.78 µM)
6 | CC(=O)N[C@H](CCN)C(=O)N[C@H]1CCNC(=O)[C@H](Cc2c[nH]c3ccccc23)NC(=O)[C@H](CCN)NC(=O)[C@H](CCN)NC(=O)[C@H](CC(C)C)NC(=O)[C@@H](Cc2ccccc2)NC(=O)[C@H](CCN)NC1=O [compound 8981, Ac-D-Dab-cyc[L-Dab-L-Dab-D-Phe-L-Leu-L-Dab-L-Dab-L-Trp]] (Ac-[dDab][Dab][Dab][dF]L[Dab][Dab]W; lactam 2-C) | 4 µg/mL (≈ 4.04 µM) | – | >32 µg/mL | – | >32 µg/mL | – | >32 µg/mL | – | 16 µg/mL (≈ 16.2 µM) | – | 32 µg/mL (≈ 32.3 µM) | – | >32 µg/mL | – | – | 32 µg/mL (≈ 32.3 µM) | >32 µg/mL | 16 µg/mL (≈ 16.2 µM) | – | >32 µg/mL | –
